Consider one compound from US20250163169A1, “ANTIBODIES FOR PREVENTING THE CLEAVAGE OF CD95L BY METALLOPROTEASES” (INSTITUT NATIONAL DE LA SANTÉ ET DE LA RECHERCHE MÉDICALE, priority 2022, published 2025).

For assay [1], the system named is s-CD95L release from 1A12 cells. The assay can be described thus: Metalloprotease-cleaved CD95L dosed by ELISA in supernatants of 1A12 cells. It is filed as cell-based. Particulars: 1A12 cells treated 24 hours, vs isotype (anti-myc 9E10 mAb) control. On the procedure: (§1) FIG. 2. Monoclonal antibodies targeting the Metalloprotease-Cleavage Sites of CD95L (MCSCs). […] Arrows represent putative cleavage site in CD95L sequence. […] Indicated peptides were injected in mice to generate monoclonal antibodies and three different hybridoma were selected regarding their ability to bind CD95L. […] B. Recombinant Ig-CD95L (100 ng) was pre-incubated for 15 min with indicated antibodies (100 pg/mL) and then treated for 1h with the indicated MMPs. The metalloprotease-cleaved fragment of Ig-CD95L (CD95L devoid of its released Ig domain of gp190) was monitored by immunoblotting. C. CD95L-expressing leukemic T cell 1A12 was incubated for 24 h with indicated antibodies ([…]) or the pan-MMP inhibitor GM6001 (10 μM) and the expression level of membrane-bound CD95L was assessed by flow cytometry. D. Supernatants were harvested from cells treated in C and the metalloprotease-cleaved CD95L was dosed by ELISA (Diaclone).
(In an ELISA, binding on a coated surface is turned into a signal by an enzyme label.)

The test system of assay [2] is CD95L-expressing leukemic T cell 1A12. The assay is described as follows: Expression level of membrane-bound CD95L on 1A12 cells by flow cytometry. In kind it is cell-based. Particulars: 24 h, antibodies 10 pg/mL, GM6001 10 μM. On the procedure: as §1
On the technique in general: In flow cytometry, cells or beads pass a laser one at a time.

Turning to `CNC(=O)[C@H](Cc1c[nH]c2ccccc12)NC(=O)[C@@H](CC(=O)NO)CC(C)C` [GM6001, reference compound], the “Concentrations of s-CD95L in supernatant” value in assay [1] is reported as “significantly reduced”. Moreover, the “Expression level of membrane-bound CD95L” value in assay [2] is reported as “augmentation of m-CD95L”.
